# According to patent US4849421A, “Anti-anxiety benzothiepino(5,4-c]pyridazines” (Yoshitomi Pharmaceutical Industries, Ltd., priority 1987, dated 1989):
# Tests used:
# benzodiazepine receptor = test: Displacement ability for benzodiazepine receptor ([3H]diazepam binding); set-up: species or system Wistar rats (cerebral cortex, crude synaptosomal fraction); settings: tritiated diazepam 2 nM, 0° C., 20 minutes, pH 7.4, rat cerebral cortex
# Protocol: Compound J: 8-chloro-2-(4-chlorophenyl)-5,6-dihydro-[1]benzothiepino[5,4-c]pyridazin-3(2H)-one 7-oxide Experiment 1: Displacement ability for benzodiazepine receptor:
# Experiment on the specific binding for benzodiazepine receptor was performed according to the method described in Life Science, vol. 20, p. 2101 (1977).
# A crude synaptosomal fraction was isolated from the cerebral cortex of 9 to 10 week-old male Wistar rats and suspended in 50 mM of Tris-hydrochloric acid buffer solution (pH 7.4) containing 120 mM of sodium chloride and 5 mM of potassium chloride.
# To the synaptosomal suspension as prepared above were added various concentrations of test compounds and tritiated diazepam (final concentration: 2 nM), and the mixture was incubated at 0° C. for 20 minutes. Then the suspension was filtered through Whatman GF/B glass fiber filter. After the filter was washed with the foregoing buffer solution, the radioactivity left on the filter was measured by a liquid scintillation spectrometry.
# Specific binding was determined by subtracting binding in the presence of 10^-6 M unlabelled diazepam from total binding.
# The affinity of the test compounds of the present invention for benzodiazepine receptor is evaluated as an ability to displace tritiated diazepam from the binding site, and is represented as Ki value.
# [1] = tested on: bicuculline-induced tonic convulsion; test: Anti-bicuculline effect; type: in vivo, male ddY-strain mice; settings: Mus musculus, po; mice, p.o. 1 hour before (+)bicuculline 0.6 mg/kg i.v.; tonic convulsion within 5 minutes
# Protocol: Experiment 2: Anti-bicuculline effect:
# The experiment of anti-bicuculline effect was performed according to the method described in Life Science, vol. 21, p. 1779 (1977).
# Groups of 7-14 male ddY-strain mice weighing 20-28 g were used. (+)Bicuculline (0.6 mg/kg) was intraveneously administered 1 hour after the oral administration of test compound, and the ED50, 50% effective dose, was determined by observing the existence of tonic convulsion within 5 minutes.
# [2] = tested on: number of shock in the punished period; test: Anti-anxiety effect (anti-conflict test, Skinner-box); type: in vivo, male rats; settings: Rattus norvegicus; rats, oral; significant increment of number of shock in the punished period; read-out: Anti-anxiety effect MED
# Protocol: Experiment 3: Anti-anxiety effect:
# The experiment was carried out by using groups of 8 male rats which were maintained at approximately 80% of their free food weights by reducing food and employing a Skinner-box equipped with lever on the side and a grid on the floor.
# The rats were placed in the Skinner-box and trained to press a lever in order to obtain milk. According to this training, the rats could obtain 0.1 ml of milk once by pressing the lever twenty times (Fix-ratio 20 reinforcement schedule, FR20).
# After the rats was trained to obtain milk for 10 minutes according to FR20 (this period was hereinafter referred to as unpunished period), loud noise was given to the rats for 5 minutes (this period was hereinafter referred to as punished period). In this punished period, the rats could obtain milk everytime when they pushed the lever once, and also received a foot shock (AC 100V, 0.4-0.8 mA) for 0.3 second through the grid.
# According to the repeated training of the unpunished period and the punished period, the animals which continuously pushed the lever in the unpunished period and rarely pushed, it in the punished period, and had the number of shock below 10 were provided to the experiment.
# After the rats were orally administered with a test compound in 0.5% methylcellulose, the unpunished period (10 minutes) and the punished period (5 minutes) were alternately performed four times to the rats. The number of push of the lever in the unpunished period in 40 minutes and the number of shock in the punished period in 20 minutes were measured, and minimum effective dose (MED, mg/kg) was determined as the dose which observable the significant increment of number of shock in the punished period with being compared to the control group.
# muscle-relaxant effect = test: Muscle-relaxant effect (rotating rod); type: in vivo, male mice; settings: Mus musculus; mice, oral, 1 hour; rotating rod 11 rpm, drop within 1 minute
# Protocol: Experiment 4: Muscle-relaxant effect:
# Groups of 10 male mice each were administered orally with test compounds and an hour later placed on the rotating rod (2.8 cm in diameter) turning at a speed of 11 rpm. The ED50 (mg/kg) was calculated by the probit method as the dose which caused to drop the half number of mice from the rod within 1 minute.
# righting reflex [3] = test: Potentiation of narcotic effect (hexobarbital); type: in vivo, male mice; settings: mice, oral, 1 hour before hexobarbital 40 mg/kg i.p.; loss of righting reflex
# Protocol: Experiment 5: Potentiation of narcotic effect:
# (§1) Groups of 14 male mice, which were set in a room kept at 26° C., were administered orally with test compound and an hour later administered intraperitoneally with 40 mg/kg of hexobarbital. The righting reflex was tested at 15 and 30 minutes after hexobarbital treatment. The ED50 (mg/kg) was calculated by the probit method as the dose which caused loss of righting reflex for more than 3 seconds in half the mice.
# righting reflex [4] = test: Potentiation of alcoholic effect (ethanol); type: in vivo, male mice; settings: mice, oral, 1 hour before 30% ethanol 0.1 ml/10 g i.p.; loss of righting reflex
# Protocol: Experiment 6: Potentiation of alcoholic effect:
# as §1, with “0.1 ml/10 g” for “40 mg/kg”, “30% ethanol.” for “hexobarbital.”, “ethanol” for “hexobarbital”
structure (smiles),measurement,setting,value
"O=c1cc2c(nn1-c1ccc(Cl)cc1)-c1ccccc1SCC2 [Compound A, 2-(4-chlorophenyl)-5,6-dihydro-[1]benzothiepino[5,4-c]pyridazin-3(2H)-one]",Ki,benzodiazepine receptor,10 nM
same,ED50,[1],5.5 mg/kg
"O=c1cc2c(nn1-c1ccc(Cl)cc1)-c1cc(Cl)ccc1[S+]([O-])CC2 (centres unmarked) [Compound B, 10-chloro-2-(4-chlorophenyl)-5,6-dihydro-[1]benzothiepino[5,4-c]pyridazin-3(2H)-one 7-oxide]",Ki,benzodiazepine receptor,11 nM
same,ED50,[1],3.2 mg/kg
"O=c1cc2c(nn1-c1ccc(Cl)cc1)-c1ccccc1[S+]([O-])CC2 (centres unmarked) [Compound C, 2-(4-chlorophenyl)-5,6-dihydro-[1]benzothiepino[5,4-c]pyridazin-3(2H)-one 7-oxide]",Ki,benzodiazepine receptor,37 nM
same,ED50,[1],1.2 mg/kg
same,minimal effective dose,[2],2.5 mg/kg
same,ED50,muscle-relaxant effect,103 mg/kg
same,Potentiation of narcotic effect ED50,righting reflex [3],113 mg/kg
same,Potentiation of alcoholic effect ED50,righting reflex [4],44 mg/kg
"O=C1CC2CC[S+]([O-])c3ccccc3C2=NN1c1ccc(Cl)cc1 (centres unmarked) [Compound D, 2-(4-chlorophenyl)-4,4a,5,6-tetrahydro-[1]benzothiepino[5,4-c]pyridazin-3(2H)-one 7-oxide]",Ki,benzodiazepine receptor,45 nM
same,ED50,[1],4.5 mg/kg
"O=c1cc2c(nn1-c1ccc(Cl)cc1)-c1cc(F)ccc1SCC2 [Compound E, 2-(4-chlorophenyl)-10-fluoro-5,6-dihydro[1]benzothiepino[5,4-c]pyridazin-3(2H)-one]",Ki,benzodiazepine receptor,14 nM
same,ED50,[1],2.2 mg/kg
"O=c1cc2c(nn1-c1ccc(Cl)cc1)-c1cc(F)ccc1[S+]([O-])CC2 (centres unmarked) [Compound F, 2-(4-chlorophenyl)-10-fluoro-5,6-dihydro-[1]benzothiepino[5,4-c]pyridazin-3(2H)-one 7-oxide]",Ki,benzodiazepine receptor,36 nM
same,ED50,[1],0.72 mg/kg
same,minimal effective dose,[2],< 5 mg/kg
same,ED50,muscle-relaxant effect,107 mg/kg
same,Potentiation of narcotic effect ED50,righting reflex [3],110 mg/kg
same,Potentiation of alcoholic effect ED50,righting reflex [4],117 mg/kg
"O=c1cc2c(nn1-c1ccc(Br)cc1)-c1ccccc1[S+]([O-])CC2 (centres unmarked) [Compound G, 2-(4-bromophenyl)-5,6-dihydro-[1]benzothiepino[5,4-c]pyridazin-3(2H)-one 7-oxide]",Ki,benzodiazepine receptor,34 nM
same,ED50,[1],5.9 mg/kg
"O=C1CC2CC[S+]([O-])c3ccccc3C2=NN1c1ccc(Br)cc1 (centres unmarked) [Compound H, 2-(4-bromophenyl)-4,4a,5,6-tetrahydro-[1]benzothiepino[5,4-c]pyridazin-3(2H)-one 7-oxide]",Ki,benzodiazepine receptor,44 nM
same,ED50,[1],4.5 mg/kg
"O=c1cc2c(nn1-c1ccc(F)cc1)-c1cc(F)ccc1SCC2 [Compound I, 10-fluoro-2-(4-fluorophenyl)-5,6-dihydro-[1]benzothiepino[5,4-c]pyridazin-3(2H)-one]",Ki,benzodiazepine receptor,43 nM
same,ED50,[1],6 mg/kg
"O=c1cc2c(nn1-c1ccc(Cl)cc1)-c1cccc(Cl)c1[S+]([O-])CC2 (centres unmarked) [Compound J, 8-chloro-2-(4-chlorophenyl)-5,6-dihydro-[1]benzothiepino[5,4-c]pyridazin-3(2H)-one 7-oxide]",Ki,benzodiazepine receptor,11 nM
same,ED50,[1],0.67 mg/kg
same,minimal effective dose,[2],< 5 mg/kg
same,ED50,muscle-relaxant effect,> 500 mg/kg
same,Potentiation of narcotic effect ED50,righting reflex [3],> 200 mg/kg
same,Potentiation of alcoholic effect ED50,righting reflex [4],> 500 mg/kg
